This passage reports IC50 results from patent US8575145B2, “Triazolopyridine compounds as PIM kinase inhibitors” (Array BioPharma Inc., priority 2008, dated 2013).

Where a name gives a salt, the structure may show the parent alone.

The subject of experiment [1] is K562 (Ph+chronic myelogenous leukemia). Briefly: Cellular Proliferation Assay, cell line B. The note with it: Homo sapiens; K562, 72 hours, CelltiterBlue; read-out: Cell Line B antiproliferative IC50. The format is cell-based. As to the method:
(§1) The assay for determination of the antiproliferative activity of multiple Pim inhibitors in the JAK2-driven cell lines was conducted as follows. Cells were plated out to 96-well plates at an initial density of 10,000 cells/well in 95 pt. Compounds were prepared at […] in DMSO by conducting 3-fold serial dilutions to give a 10-point dosing curve having a high dose of 1000 μM. Aliquots (5 μt) of these dilutions were then transferred to the appropriate wells of the 96-well plates containing cells to yield a final DMSO concentration of 0.5%. The cells were then incubated with compound for 72 hours at 37° C., 5% CO2. CelltiterBlue reagent (Promega, Catalog #: G8080) was then added (20 μL/well) and incubated at 37° C., 5% CO2 for 1-8 hours depending on the cell line being analyzed. The plate was then quantified employing a fluorescence plate reader (Model: Gemini [Molecular Devices]; Settings: 560 nm (Ex)/590 nm (Em) 570 nm (cut-off) [CellTiter Blue Assay].
(§2) The values for each well were then converted to a percent of untreated control (POC). These POC values were then plotted as a function of compound concentration. A 4-parameter curve-fit analysis was performed for each compound dilution and an IC50 value was calculated from this curve.
(§3) Cell lines • A: PC3 (Androgen independent prostate cancer) • B: K562 (Ph+chronic myelogenous leukemia) • C: MV4-11 (Acute myelogenous leukemia) • D: BxPC3 (Pancreatic Cancer) • E: HepG2 (Hepatocellular Carcinoma) • F: BaF3 (Mouse pro-B-cell line) • G: BaF3 TEL-JAK2 (Mouse pro-B-cell transformed with TEL-JAK2 fusion) • H: BaF2 BCR-Ab1 (Mouse pro-B-cell transformed with BCR-Ab1 fusion)
A general note: The colour change of resazurin is a common sign of viable cells or microbes.

The test system of experiment [2] is BaF3 (Mouse pro-B-cell line). In words: Cellular Proliferation Assay, cell line F. The format is cell-based. As to conditions: BaF3, 72 hours, CelltiterBlue, read-out: Cell Line F antiproliferative IC50. How it is done:
as §1, §2, §3

For experiment [3], the system named is BaF3 TEL-JAK2 (Mouse pro-B-cell transformed with TEL-JAK2 fusion). Briefly: Cellular Proliferation Assay, cell line G. As to conditions: BaF3 TEL-JAK2, 72 hours, CelltiterBlue, read-out: Cell Line G antiproliferative IC50. The format is cell-based. How it is done: as §1, §2, §3
Experiment [4] concerns BaF2 BCR-Ab1 (Mouse pro-B-cell transformed with BCR-Ab1 fusion). In words: Cellular Proliferation Assay, cell line H. The note with it: BaF2 BCR-Ab1, 72 hours, CelltiterBlue, read-out: Cell Line H antiproliferative IC50. The format is cell-based. How it is done:
as §1, §2, §3

Experiment [5] concerns CD4+ T cells. In words: T Cell in vitro Functional Assay (A): proliferation. The format is cell-based. The note with it: Mus musculus, anti-CD3/anti-CD28, 40 hours. How it is done:
(§4) The in vitro assays to assess the effects of the compounds of Examples 16, 18 and 26 on T cells were conducted as described in assays A, B, C and D below. CD4+ T cells were isolated from red blood cell-depleted splenocytes of C57B1/6J mice (Jackson Laboratories, catalog #000664) using CD4+ T cell isolation kit (Miltenyi, catalog #130-090-860).
(§5) In assay (A), purified CD4+ T cells were plated in 96 well plates at 90000 cells/well in 90 μL. A dilution series of the compounds of Examples 16, 18 and 26 were prepared at 100× the final concentration in DMSO and then diluted 10-fold into complete media (10× stocks). 10 μL of 10×compound stocks were added to appropriate wells of 96 well plates containing cells and incubated for 1 hour at 37° C., 5% CO2. The cell/compound mixtures were then transferred to a 96 well plate coated with anti-CD3 mAb (1 μg/mL; BD Pharmingen, catalog #553057) and soluble anti-CD28 mAb (1 μg/mL; BD Pharmingen, catalog #553294) was added. Plates were cultured at 37° C., 5% CO2 for 40 hours. 20 μL of the culture were removed for determination of proliferation using the CellTitre-Glo™ luminescent assay (Promega, Catalog #G7571) according to the manufacturer's protocol. The plate was quantified on a Packard TopCount instrument using luminescence protocol and data was analyzed using Prism software.
(§6) For each of assays A, B, C and D, the values for each well were converted to a percent of vehicle-treated (DMSO) control (POC). These POC values were plotted as a function of compound concentration and an IC50 calculated using a 4-parameter curve-fit analysis program.

Experiment [6] concerns CD4+ T cells. Briefly: T Cell in vitro Functional Assay (B): IL-2 production. The format is cell-based. As to conditions: Mus musculus, anti-CD3/anti-CD28, 40 hours, ELISA. As to the method:
as §4, §5
In assay (B), purified CD4+ cells were treated with compound and stimulated as described for assay (A). After 40 hours, supernatants were assayed for IL-2 using R&D duo set ELISA kits (catalog #DY402). ELISA plates were quantified relative to a standard curve using Molecular Devices Versamax Reader at […] and Softmax Pro software.
as §6

Experiment [7] relates to CD4+ T cells. Briefly: T Cell in vitro Functional Assay (C): IL-4 production. The format is cell-based. As to conditions: Mus musculus; CD4+ T cells cultured with IL-4/anti-IFNγ, anti-CD3 restimulation 18 hours, ELISA. How it is done:
as §4
In assay (C), 1000000 cells/mL of purified CD4+ T cells were mixed with 1 μg/mL anti-CD28, 10 ng/mL IL-4 (R&D Systems cat #404-ML-010/CF) and 2 μg/mL anti-IFNγ (R&D Systems cat #AB-485-NA) and placed into plates coated with 1 μg/mL anti-CD3. After 5 days, cells were harvested, washed and incubated overnight at 37° 5% CO2. The following day, 50,000 cells were plated into each well of a 96 well plate. A dilution series of compounds were prepared at 200× the final concentration in DMSO, then 10×stocks were prepared by dilution in cell culture media. 10 μL of 10× stocks were added to the cells in the 96 well plate and incubated for 2 hours at 37° C., 5% CO2. Cell/compound mixtures were then transferred to well coated with 0.1 μg anti-CD3 and incubated at 37° C., 5% CO2. Culture supernatants were removed 18 hours later and tested for IL-4 levels by ELISA (R&D Systems catalog #DY404). ELISA plates were quantified relative to a standard curve using Molecular Devices Versamax Reader at […] and Softmax Pro software.
as §6
A general note: An ELISA detects its analyte on a solid surface through an enzyme-linked reagent.

Experiment [8] concerns the target GST-tagged recombinant full-length human PIM-2 (Homo sapiens (Human), UniProt Q9P1W9). Briefly: PIM-2 Enzyme Assay. As to conditions: read-out: PIM-2 IC50; 4 μM ATP, […] PIM-2.
Protocol: The amount of radiolabeled product is then measured by liquid scintillation counting. The final buffer conditions were as follows: 20 mM K^+MOPS, pH 7.4, 10 mM MgCl2, 0.005% Tween-20, 1 mM DTT. […] Incubations were carried out for 60 min at 22° C. and quenched with 75 μL of 200 mM H3PO4, filtered through a Whatman P81 plate and washed (1×200 μL and 5×100 μL ) with 200 mM H3PO4. Liquid scintillation cocktail (50 μL ) was then added per well, and the plate was counted for 30 s/well using a TopCount NXT.
One-μL aliquots of these were then transferred to the assay mixtures above to give a final concentration of DMSO of 2%. […] For each plate, percent of control (POC) values were calculated for each well. IC50's were estimated from the POC's using a standard 4-parameter logistic model. The IC50 is defined as the concentration of inhibitor at which the POC equals 50 for the fitted curve.
Experiment [9] concerns the target recombinant rat PIM-3 (Rattus norvegicus (Rat), UniProt O70444). In words: PIM-3 Enzyme Assay. As to conditions: read-out: PIM-3 IC50; 30 μM ATP, 0.5 nM PIM-3.

Sequence of GST-tagged recombinant full-length human PIM-2 (Q9P1W9 whole entry): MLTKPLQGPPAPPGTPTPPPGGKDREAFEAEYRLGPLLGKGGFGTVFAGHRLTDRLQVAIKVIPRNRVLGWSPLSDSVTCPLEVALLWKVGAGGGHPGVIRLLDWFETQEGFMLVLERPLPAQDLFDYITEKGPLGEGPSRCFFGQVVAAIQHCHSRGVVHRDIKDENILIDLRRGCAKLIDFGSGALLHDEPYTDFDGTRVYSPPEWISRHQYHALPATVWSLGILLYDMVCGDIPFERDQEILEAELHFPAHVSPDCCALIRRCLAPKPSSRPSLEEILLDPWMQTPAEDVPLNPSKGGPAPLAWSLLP

In the case of `F[C@@H]1CNCCC1Oc1cccc2ccc(-c3nnc4ccccn34)nc12` (stereo in doubt) [Example 26, 2-([1,2,4]triazolo[4,3-a]pyridin-3-yl)-8-((cis)-3-fluoropiperidin-4-yloxy)quinoline dihydrochloride], the half-maximal inhibitory concentration (IC50) in [1] is below 10 µM; in experiment [2], below 2 µM; in experiment [3], below 2 µM; in experiment [4], below 2 µM; in [5] it was at most 5 µM; in experiment [6] it was at most 5 µM. Besides, the concentration for half-maximal inhibition (IC50) was at most 5 µM in experiment [7], 0.137 µM in [8] and 0.009 µM in experiment [9].

On to `c1cc(OCC2CCCNC2)c2nc(-c3nnc4ccccn34)ccc2c1` (stereo not drawn) [Example 16, 2-([1,2,4]Triazolo[4,3-a]pyridin-3-yl)-8-(piperidin-3-ylmethoxy)quinoline], for which the half-maximal inhibitory concentration (IC50) in experiment [1] was below 10 µM; in [2], below 2 µM; in [3] it was below 2 µM; in [4] it was below 5 µM; in experiment [5], at most 1 µM; in experiment [6], at most 1 µM. Besides, the figures for the concentration for half-maximal inhibition (IC50) in experiment [7], in [8] and in [9] were at most 1 µM, 0.169 µM and 0.004 µM, respectively.

As for `CC(C)(CN)COc1cccc2ccc(-c3nnc4ccccn34)nc12` [Example 18, 3-(2-([1,2,4]Triazolo[4,3-a]pyridin-3-yl)quinolin-8-yloxy)-2,2-dimethylpropan-1-amine], the 50% inhibitory concentration (IC50) in experiment [1] was below 5 µM; in experiment [2], below 2 µM; in experiment [3], below 2 µM; in experiment [4], below 2 µM; in [5], at most 1 µM; in [6] it was at most 1 µM. The IC50 was at most 1 µM in experiment [7], 0.049 µM in experiment [8] and 0.002 µM in experiment [9].

As a reminder, the IC50 is the concentration that inhibits the measured activity by half.
